Measurements taken from patent publication EP0777471B1, “INHIBITION OF LEUKOTRIENE BIOSYNTHESIS WITH UREA DERIVATIVES” (MINNESOTA MINING AND MANUFACTURING COMPANY, priority 1994, dated 1996).
Where “and” joins values, the source holds several entries; their conditions need not be identical. Identical values can stand only once. Like-named read-outs stand apart in the source and are kept apart here.

Legend:
[1] = system: production of Leukotriene C4 in mouse peritoneal macrophages; assay: In vitro mouse peritoneal macrophage Leukotriene C4 inhibition (zymosan-stimulated, LTC4 radioimmunoassay); assay type: cell-based; details: Zymosan 50 µg/mL
Procedure: The test method described below measures the ability of compounds to inhibit the production of Leukotriene C4 in mouse peritoneal macrophages.
Mice (female, CD-1, weighing 25 g) are euthanized by exposure to carbon dioxide. The peritoneal cavity is exposed by peeling back the abdominal skin. A 5 mL portion of media (M199 containing 1% fetal bovine serum, 100 units/mL of penicillin, 100 µg/mL of streptomycin, 20 units/mL of heparin and no glutamine) is injected into the exposed peritoneal cavity of each mouse. The lavage fluid is removed and pooled to yield approximately1 X 10^6 macrophages/mL. A 2 mL portion of lavage fluid is added to each well of a 24 well sterile multidish and the macrophages are allowed to adhere to the plate for 2 hours at 37°C in a 5% carbon dioxide atmosphere. The media is removed and each well is washed with 2 mL of phosphate buffered saline (PBS). A 1 mL portion of media, without heparin, but containing 5 µCi/mL of 3H-myoinositol is added to each well and the plates are incubated overnight at 37°C in a 5% carbon dioxide atmosphere. The media is removed and the cells are washed twice with 2 mL portions of PBS. A 1 mL portion of Puck's saline formulation A containing 1 mM calcium chloride, 1 mM magnesium chloride and 10 mM lithium chloride is added to each well. (The Puck's formulation is made first as a 10X solution which contains 4 g of potassium chloride, 80 g of sodium chloride and 10 g of glucose per liter. The Puck's saline formulation A is made using 10 mL of the 10X Puck's formulation, 0.47 mL of 7.5% sodium bicarbonate and 2 mL of 1M N-2-hydroxyethylpiperazine-N'-2-ethanesulfonic acid per 100 mL.)
Compounds are dissolved in dimethyl sulfoxide. Compounds are tested at concentrations of 10, 1 and 0.1 µM. Each concentration is tested in duplicate.
A 1 µL portion of compound solution or vehicle (DMSO) is added to each well and the plates are incubated for 15 minutes at 37°C in a 5% carbon dioxide atmosphere. Zymosan is then added to provide a final concentration of 50 µg/mL in each well and the plate is incubated for 1 to 2 hours at 37°C in a 5% carbon dioxide atmosphere.
Following incubation 200 µL portions of media are transferred to 12 X 75 mm tubes. The tubes are either assayed immediately or stored at -20°C until they can be assayed.
The media is assayed for the presence of Leukotriene C4 by radioimmunoassay which is performed according to the manufacturer's (Advanced Magnetics; Cambridge, MA) instructions.

[2] = system: production of Leukotriene B4; assay: Rat ex vivo Leukotriene B4 inhibition (oral dosing, blood challenged with A23187); assay type: in vivo, Rats; details: 50 mg/Kg, two hours post dose
Procedure: The test method described below measures the ability of a compound when administered orally to rats to inhibit the production of Leukotriene B4 in their blood which is drawn and challenged.
Rats (CD, male, non-fasted, 250 g) are lightly anesthetized with carbon dioxide and an approximately 0.75 mL sample of whole blood is obtained via cardiac puncture. The sample is dispensed into 12 X 75 mm polypropylene tubes containing 8-10 µL of 10,000 units/mL heparin, mixed and then maintained on ice. The rats are allowed to recover approximately one hour then dosed orally with compound dissolved in PEG 400 at a 5 mL/Kg volume. Five (5) rats are utilized per group. Two (2) hours post dose the rats are again anesthetized with carbon dioxide and the blood sampled again via cardiac puncture.
Duplicate 200 µL portions of blood are added to 1.0 mL polypropylene tubes. A 10 µL portion of 1mM A23187 Calcium Ionophore in dimethyl sulfoxide/Tris buffer is added to each tube. The tubes are gently vortexed then incubated in a 37°C water bath for 30 minutes. The tubes are then centrifuged at 4000 rpm for 10 minutes. 50 µL portions of plasma are transferred to 1.0 mL tubes containing 200 µL of methanol. The tubes are vortexed then placed in the freezer overnight.
The tubes are removed from the freezer then centrifuged at 4000 rpm for 10 minutes. […] portions of the methanol/plasma supernatant and 10 µL methanol dilutions of LTB4 standard curve are transferred to 96 well v-bottom microtiter plates. The plates are vacuum dried at 40°C. A 40 µL portion of LTB4 radioimmunoassay buffer is added to each well. The plate is bath sonicated for 5 minutes then assayed according to the manufacturer's (Advanced Magnetics; Cambridge, MA) instructions. Percent inhibition values are obtained by comparing the level of LTB4 in the post-dose samples to the level in the pre-dose samples according to the equation below. % Inhibition =((LTB4 pre-dose) - (LTB4 post-dose))/((LTB4 pre-dose))X 100 [formula]

[3] = system: production of Leukotriene B4 (LTB4); assay: Dog ex vivo Leukotriene B4 inhibition (oral dosing, blood challenged with calcium ionophore); assay type: in vivo, beagle dogs; details: each entry one dog, negative = stimulation of LTB4 production; for inhibition at 5 mg/kg: Canis lupus familiaris, po
Procedure: The test method described below measures the ability of a compound when administered orally to dogs to inhibit the production of Leukotriene B4 (LTB4) in their blood which is drawn and challenged at selected time points.
The test is conducted in beagle dogs (male and female; about 10 Kg). Prior to starting, the neck area of the beagle is shaved to allow easy access to the jugular vein. A 3-4 mL sample of blood is drawn from the jugular vein into a heparinized vacutainer. The dog is then dosed using a tube long enough to reach its stomach. The compound is dissolved in PEG 400 at a concentration such that the appropriate dose can be administered in approximately 5 mL. Immediately after the compound is given, a flush using 5 mL of vehicle is given to rinse the dosing tube. At selected time points following the dose, a 3-4 mL sample of blood is drawn.
The blood samples that have been drawn are challenged as soon as possible. A 0.5 mL portion of blood is aliquoted into 3 tubes (1 mL microtiter tubes). A 1 µL portion of 25 mM calcium ionophore in dimethyl sulfoxide is added to 2 of the tubes. A 1 µL portion of dimethyl sulfoxide is added to the third tube. The tubes are lightly mixed then placed in a 37°C water bath for 30 minutes. The tubes are centrifuged at 11,000 rpm for 3 minutes and the plasma supernatant is transferred to clean tubes. A 50 µL portion of this plasma is added to a I mL microtiter tube containing 200 µL of methanol. The tubes are placed in the freezer at -20°C for at least 1 hour then centrifuged at 2000 rpm for 10 minutes. A 10 µL portion of the methanol supematant is dried under vacuum at ambient temperature and then reconstituted in LTB4 buffer. The amount of LTB4 in the sample is determined by radioimmunoassay performed according to the manufacturer's (Advanced Magnetics; Cambridge, MA) instructions. Percent inhibition values are obtained by comparing the level of LTB4 in the post-dose sample to the level in the pre-dose sample according to the equation below. % Inhibition =((LTB4 predose) - (LTB4 postdose))/((LTB4 predose))X 100 [formula]
A number of the compounds that are useful in the practice of the method of the invention were tested. The results are shown in Table 15 below where each entry represents the results from one dog. A negative number indicates stimulation of LTB4 production. All compounds were tested at a dose of 5 mg/Kg.

| SMILES | IC50 [1] | %I [2] | also measured |
| --- | --- | --- | --- |
| CN(O)C(=O)Nc1ccc([N+](=O)[O-])cc1 [Compound 13, 1-hydroxy-1-methyl-3-(4-nitrophenyl)urea] | 1000 nM | 23% |  |
| CSc1ccc(NC(=O)N(O)C(C)C)cc1 [Compound 15, 1-Hydroxy-1-(1-methylethyl)-3-[4-(methylthio)phenyl]urea] | < 100 nM |  | % Inhibition 1 hour ([3]; 5 mg/Kg, 1 hour post dose): 95%; % Inhibition 2 hour ([3]; 5 mg/Kg, 2 hour post dose): 98%; % Inhibition 4 hour ([3]; 5 mg/Kg, 4 hour post dose): 98% and 96% and 31%; % Inhibition 6 hour ([3]; 5 mg/Kg, 6 hour post dose): 84% and 14%; inhibition at 5 mg/kg ([3]; 1 h, 1 hour post dose, read-out: % Inhibition 1 hour): 100%; inhibition at 5 mg/kg ([3]; 2 h, 2 hour post dose, read-out: % Inhibition 2 hour): 99% |
| CC(C)N(O)C(=O)Nc1ccc([N+](=O)[O-])cc1 [Compound 30, 1-hydroxy-1-(1-methylethyl)-3-(4-nitrophenyl)urea] | 300 nM | 13% |  |
| CSc1cccc(NC(=O)N(O)C2CCCCC2)c1 [Compound 32, 1-Cyclohexyl-1-hydroxy-3-[3-(methylthio)phenyl]urea] | 400 nM | 28% |  |
| O=C(Nc1ccccc1)N(O)C1CCCCCCC1 [Compound 36, 1-Cyclooctyl-1-hydroxy-3-phenylurea] | 200 nM | 7% |  |
| COc1ccc(NC(=O)N(O)C2CCCCCCC2)cc1 [Compound 37, 1-Cyclooctyl-1-hydroxy-3-(4-methoxyphenyl)urea] | < 1000 nM | 7% |  |
| O=C(Nc1ccc([N+](=O)[O-])cc1)N(O)C1CCCCCCC1 [Compound 38, 1-Cyclooctyl-1-hydroxy-3-(4-nitrophenyl)urea] | < 1000 nM | 2% |  |
| CCC(CC)N(O)C(=O)Nc1ccc(SC)cc1 [Compound 39, 1-(1-Ethylpropyl)-1-hydroxy-3-[4-(methylthio)phenyl]urea] | < 1000 nM | 59% |  |
| CCC(CC)N(O)C(=O)Nc1ccc([N+](=O)[O-])cc1 [Compound 40, 1-(1-Ethylpropyl)-1-hydroxy-3-(4-nitrophenyl)urea] | 1000 nM | 0% |  |
| CC(CCN(O)C(=O)Nc1ccccc1)CC(C)(C)C (stereo not drawn) [Compound 49, 1-hydroxy-3-phenyl-1-(3,5,5-trimethylhexyl)urea] | < 1000 nM | 13% |  |
| CCOC(=O)CCCCCN(O)C(=O)Nc1ccccc1 [Compound 50, 6-(1-hydroxy-3-phenylureido)-1-hexanoic acid ethyl ester] | < 1000 nM | 6% |  |
| O=C(Nc1ccccc1)N(O)C1CCCCCC1 [Compound 51, 1-cycloheptyl-1-hydroxy-3-phenylurea] | 600 nM | 22% |  |
| CCCCCCCCN(O)C(=O)Nc1ccccc1 [Compound 52, 1-hydroxy-1-octyl-3-phenylurea] | < 100 nM | 9% |  |
| CCCCCCCCCCCCN(O)C(=O)Nc1ccccc1 [Compound 53, 1-dodecyl-1-hydroxy-3-phenylurea] | < 1000 nM | 1% |  |
| CCCCCN(O)C(=O)Nc1ccccc1 [Compound 56, 1-hydroxy-1-pentyl-3-phenylurea] | < 100 nM | 6% and 13% |  |
| CC(C)N(O)C(=O)Nc1ccc(S(C)(=O)=O)cc1 [Compound 62, 1-Hydroxy-1-(1-methylethyl)-3-[4-(methylsulfonyl)phenyl]urea] | 6400 nM | 18% |  |
| CC(C)N(O)C(=O)Nc1ccc([S+](C)[O-])cc1 (stereo not drawn) [Compound 63, 1-Hydroxy-1-(1-methylethyl)-3-[4-(methylsulfinyl)phenyl]urea] | 4000 nM | 92% |  |
| Cc1cc(C)c(NC(=O)N(O)C(C)C)cc1C [Compound 67, 1-Hydroxy-1-(1-methylethyl)-3-(2,4,5-trimethylphenyl)urea] | < 1000 nM | 23% |  |
| CCC(C)N(O)C(=O)Nc1ccccc1 (stereo not drawn) [Compound 69, 1-Hydroxy-1-(1-methylpropyl)-3-phenylurea] | < 1000 nM | 71% |  |
| CCCC(CCC)N(O)C(=O)Nc1ccccc1 [Compound 70, 1-Hydroxy-1-(1-propylbutyl)-3-phenylurea] | < 1000 nM | 0% |  |
| CCCC(CC)N(O)C(=O)Nc1ccccc1 (stereo not drawn) [Compound 71, 1-Hydroxy-1-(1-ethylbutyl)-3-phenylurea] | < 1000 nM | 5% |  |
| CCC(CC)N(O)C(=O)N(C)c1ccccc1 [Compound 74, 1-Hydroxy-1-(1-ethylpropyl)-3-methyl-3-phenylurea] | < 10000 nM | 7% |  |
| CN(O)C(=O)N(C)c1ccccc1 [Compound 75, 1-Hydroxy-1,3-dimethyl-3-phenylurea] | < 10000 nM | 0% |  |
| CCC(CC)N(O)C(=O)Nc1ccccc1Oc1ccccc1 [Compound 76, 1-Hydroxy-1-(1-ethylpropyl)-3-(2-phenoxyphenyl)urea] | < 100 nM | 13% |  |
| CCC(CC)N(O)C(=O)Nc1cccc(Oc2ccccc2)c1 [Compound 77, 1-Hydroxy-1-(1-ethylpropyl)-3-(3-phenoxyphenyl)urea] | < 100 nM | 7% |  |
| CCC(CC)N(O)C(=O)Nc1ccc(Cc2ccccc2)cc1 [Compound 78, 1-Hydroxy-1-(1-ethylpropyl)-3-(4-benzylphenyl)urea] | < 1000 nM | 0% |  |
